In PubChem BioAssay AID248 (DTP/NCI, 2004) one finds T/C data, which are given here for 21 compounds.

The test system of this assay is L1210 leukemia ip in BDF1 mice, survival T/C. In words: NCI In Vivo Anticancer Drug Screen. Data for tumor model L1210 Leukemia (intraperitoneal) in B6D2F1 (BDF1) mice. The note with it: endpoint: mean survival time, higher = longer survival. Summed up:
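Survival endpoint. Drug-treated group vs vehicle group, expressed as T divided by C. Tumor passaged by transplantation.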

Where [1] appears, read: dose: 100.0 mg/kg/injection, schedule: Q01DX001 (ip), vehicle: saline.
Setting [2] is: dose: 200.0 mg/kg/injection, schedule: Q01DX001 (ip), vehicle: saline.
The mark [3] stands for this setting: dose: 400.0 mg/kg/injection, schedule: Q01DX001 (ip), vehicle: saline.
Where [4] appears, read: dose: 100.0 mg/kg/injection, schedule: Q01DX001 (ip), vehicle: carboxymethylcellulose (CMC).
Setting [5] is: dose: 200.0 mg/kg/injection, schedule: Q01DX001 (ip), vehicle: carboxymethylcellulose (CMC).
Setting [6] is: dose: 400.0 mg/kg/injection, schedule: Q01DX001 (ip), vehicle: carboxymethylcellulose (CMC).
Setting [7] is: dose: 100.0 mg/kg/injection, schedule: Q01DX009 (ip), vehicle: Klucel (hydroxypropylcellulose) (HPC).
The mark [8] stands for this setting: dose: 100.0 mg/kg/injection, schedule: Q04DX003 (ip), vehicle: Klucel (hydroxypropylcellulose) (HPC).
[9] abbreviates: dose: 200.0 mg/kg/injection, schedule: Q01DX009 (ip), vehicle: Klucel (hydroxypropylcellulose) (HPC).
Where [10] appears, read: dose: 200.0 mg/kg/injection, schedule: Q04DX003 (ip), vehicle: Klucel (hydroxypropylcellulose) (HPC).
The mark [11] stands for this setting: dose: 400.0 mg/kg/injection, schedule: Q01DX009 (ip), vehicle: Klucel (hydroxypropylcellulose) (HPC).
Setting [12] is: dose: 400.0 mg/kg/injection, schedule: Q04DX003 (ip), vehicle: Klucel (hydroxypropylcellulose) (HPC).
[13] abbreviates: dose: 100.0 mg/kg/injection, schedule: Q04DX003 (ip), vehicle: saline with Tween-80.
[14] abbreviates: dose: 50.0 mg/kg/injection, schedule: Q01DX001 (ip), vehicle: carboxymethylcellulose (CMC).

The structures appear in SMILES notation. Inconclusive results and toxic doses are left out. Square brackets hold non-standard residues; d marks the D form. Peptide text beside a SMILES is read from it. * marks the point of attachment. ξ: configuration not given here. Cbz = O=C(OCc1ccccc1)*; OBn = c1ccc(CO*)cc1; ξP = O=C(O)C1CCCN1

For the compound `Cc1ccc(C(=O)/C=C/c2ccco2)c(C)c1`, the T/C reads like this: (dose: 100.0 mg/kg/injection, schedule: Q04DX002 (ip), vehicle: Klucel (hydroxypropylcellulose) (HPC)) 99 % of control; (dose: 200.0 mg/kg/injection, schedule: Q04DX002 (ip), vehicle: Klucel (hydroxypropylcellulose) (HPC)) 86 % of control; (dose: 400.0 mg/kg/injection, schedule: Q04DX002 (ip), vehicle: Klucel (hydroxypropylcellulose) (HPC)) 99 % of control.
As to `Cc1cc(NC(=O)Nc2cccc(C3=NCCN3)c2)ccc1NC(=O)Nc1cccc(C2=NCCN2)c1`, the T/C by setting is: (dose: 15.0 mg/kg/injection, schedule: Q01DX Z (ip), vehicle: saline) 93 % of control; (dose: 30.0 mg/kg/injection, schedule: Q01DX Z (ip), vehicle: saline) 103 % of control; (dose: 60.0 mg/kg/injection, schedule: Q01DX Z (ip), vehicle: saline) 109 % of control; (dose: 240.0 mg/kg/injection, schedule: Q01DX Z (ip), vehicle: saline) 171 % of control; (dose: 480.0 mg/kg/injection, schedule: Q01DX Z (ip), vehicle: saline) 192 % of control.
For the compound `CCS(=O)(=O)Nc1ccc(Nc2c3ccccc3nc3ccccc23)c(OC)c1`, the T/C (dose: 2.5 mg/kg/injection, schedule: Q01DX009 (ip), vehicle: Klucel (hydroxypropylcellulose) (HPC)) was 152 % of control; the T/C (dose: 5.0 mg/kg/injection, schedule: Q01DX009 (ip), vehicle: Klucel (hydroxypropylcellulose) (HPC)) is 168 % of control; the T/C (dose: 5.0 mg/kg/injection, schedule: Q01DX009 (ip), vehicle: saline) was 155 % of control; the T/C (dose: 10.0 mg/kg/injection, schedule: Q01DX009 (ip), vehicle: Klucel (hydroxypropylcellulose) (HPC)) is 163 % of control; the T/C (dose: 10.0 mg/kg/injection, schedule: Q01DX009 (ip), vehicle: saline) was 216 % of control; the T/C (dose: 20.0 mg/kg/injection, schedule: Q01DX009 (ip), vehicle: Klucel (hydroxypropylcellulose) (HPC)) is 86 % of control.
Turning to `COc1ccc(C(=S)N2CCN(c3ccccc3Cl)CC2)cc1`, the T/C runs as follows: under setting [1], 101 % of control; under setting [2], 91 % of control; under setting [3], 90 % of control.
For the compound `Nc1c(Br)cc(Br)c2c1-c1ccccc1C2=O`, the T/C under setting [4] was 98 % of control, the T/C under setting [5] is 104 % of control and the T/C under setting [6] is 102 % of control.
Regarding `CCOC(=O)C(=Cc1cccc2ccccc12)C(=O)OCC`, the T/C runs as follows: under setting [7], 98 % of control; under setting [8], 101 % of control; under setting [9], 105 % of control; under setting [10], 98 % of control; under setting [11], 93 % of control; under setting [12], 92 % of control.
Consider `CCCc1cn(C2OC(=O)c3ccccc32)c2ccccc12` (centres undefined), for which the T/C by setting is: under setting [1], 96 % of control; (dose: 100.0 mg/kg/injection, schedule: Q04DX003 (ip), vehicle: saline) 109 % of control; under setting [2], 105 % of control; (dose: 200.0 mg/kg/injection, schedule: Q04DX003 (ip), vehicle: saline) 97 % of control; under setting [3], 102 % of control; (dose: 400.0 mg/kg/injection, schedule: Q04DX003 (ip), vehicle: saline) 101 % of control.
As for `CCOC(=O)NCC(C)(CCN1CCOCC1)c1cccc2ccccc12` (centres undefined), the T/C is, setting by setting: (dose: 25.0 mg/kg/injection, schedule: Q04DX003 (ip), vehicle: saline with Tween-80) 93 % of control; (dose: 50.0 mg/kg/injection, schedule: Q04DX003 (ip), vehicle: saline with Tween-80) 97 % of control; under setting [7], 94 % of control; under setting [13], 103 % of control.
`CSc1ccc(B2Oc3cc(Cl)c(Cl)cc3O2)cc1`: the T/C (dose: 100.0 mg/kg/injection, schedule: Q04DX003 (ip), vehicle: alcohol) is 124 % of control; the T/C (dose: 200.0 mg/kg/injection, schedule: Q04DX003 (ip), vehicle: alcohol) is 95 % of control; the T/C (dose: 400.0 mg/kg/injection, schedule: Q04DX003 (ip), vehicle: alcohol) was 100 % of control.
For `Cc1ccc(S(=O)(=O)Oc2ccc([N+](=O)[O-])cc2[N+](=O)[O-])cc1`, the T/C was 106 % of control under setting [14]; 100 % of control (dose: 50.0 mg/kg/injection, schedule: Q01DX009 (ip), vehicle: other); 114 % of control under setting [4]; 96 % of control (dose: 100.0 mg/kg/injection, schedule: Q01DX009 (ip), vehicle: other); 118 % of control under setting [8]; 106 % of control under setting [5]. Further, the T/C is 96 % of control under setting [10] and 106 % of control under setting [6].
As for `CN(c1ccccc1)[N+](=O)[O-]`, the T/C was 94 % of control (dose: 100.0 mg/kg/injection, schedule: Q01DX001 (ip), vehicle: other); 97 % of control (dose: 200.0 mg/kg/injection, schedule: Q01DX001 (ip), vehicle: other); 97 % of control (dose: 400.0 mg/kg/injection, schedule: Q01DX001 (ip), vehicle: other).
With `CCCCCCCCCCCCCCCCC(=O)OCC`, the T/C (dose: 75.0 mg/kg/injection, schedule: Q01DX001 (ip), vehicle: carboxymethylcellulose (CMC)) was 91 % of control.
`CC(=O)[O][Sn]([CH3])([CH3])[CH3]`: the T/C runs as follows: (dose: 0.18 mg/kg/injection, schedule: Q01DX009 (ip), vehicle: Klucel (hydroxypropylcellulose) (HPC)) 93 % of control; (dose: 0.37 mg/kg/injection, schedule: Q01DX009 (ip), vehicle: Klucel (hydroxypropylcellulose) (HPC)) 96 % of control; (dose: 0.75 mg/kg/injection, schedule: Q01DX009 (ip), vehicle: Klucel (hydroxypropylcellulose) (HPC)) 104 % of control.
With `O=C(Nn1cn[nH]c1=S)Oc1ccccc1`, the T/C by setting is: under setting [13], 103 % of control; (dose: 200.0 mg/kg/injection, schedule: Q04DX003 (ip), vehicle: saline with Tween-80) 103 % of control.
On to `CCOP(=O)(Nc1ccc2c(c1)C(=O)c1ccccc1-2)OCC`, for which the T/C was 97 % of control under setting [14], 103 % of control under setting [4], 100 % of control under setting [5] and 103 % of control under setting [6].
For `COc1cc(/C=N/O)cc(I)c1O`, the T/C by setting is: under setting [7], 104 % of control; under setting [9], 101 % of control; under setting [11], 101 % of control.
As for `O=C(NCC(=O)N1CCCC1C(=O)OCc1ccccc1)OCc1ccccc1` (stereo not drawn) (Cbz-Gly-[ξP]-OBn), the T/C is, setting by setting: under setting [8], 106 % of control; under setting [10], 106 % of control; under setting [12], 102 % of control.
With `O=C(COc1cc(Cl)c(Cl)cc1Cl)Nc1ccc([N+](=O)[O-])cc1Cl`, the T/C is 102 % of control (dose: 100.0 mg/kg/injection, schedule: Q04DX002 (ip), vehicle: saline with Tween-80); 109 % of control (dose: 200.0 mg/kg/injection, schedule: Q04DX002 (ip), vehicle: saline with Tween-80); 98 % of control (dose: 400.0 mg/kg/injection, schedule: Q04DX002 (ip), vehicle: saline with Tween-80).
Regarding `COc1cc2c(cc1OC)C(=O)C(Br)N(S(=O)(=O)c1ccc(C)cc1)CC2` (centres undefined), the T/C is 96 % of control (dose: 100.0 mg/kg/injection, schedule: Q01DX009 (ip), vehicle: saline); 97 % of control (dose: 200.0 mg/kg/injection, schedule: Q01DX009 (ip), vehicle: saline); 93 % of control (dose: 400.0 mg/kg/injection, schedule: Q01DX009 (ip), vehicle: saline).
Consider `Cc1ccc(S(=O)(=O)NC(N)=NCCCC(NC(=O)OC(C)(C)C)C(=O)O)cc1` (centres undefined), for which the T/C by setting is: (dose: 100.0 mg/kg/injection, schedule: Q01DX009 (ip), vehicle: saline with Tween-80) 89 % of control; (dose: 200.0 mg/kg/injection, schedule: Q01DX009 (ip), vehicle: saline with Tween-80) 86 % of control; (dose: 400.0 mg/kg/injection, schedule: Q01DX009 (ip), vehicle: saline with Tween-80) 86 % of control.
As to `COc1ccc(OC)c2ccccc12`, the T/C was 101 % of control (dose: 50.0 mg/kg/injection, schedule: Q01DX005 (ip), vehicle: saline with Tween-80); 101 % of control (dose: 100.0 mg/kg/injection, schedule: Q01DX005 (ip), vehicle: saline with Tween-80); 111 % of control (dose: 200.0 mg/kg/injection, schedule: Q01DX005 (ip), vehicle: saline with Tween-80); 98 % of control (dose: 400.0 mg/kg/injection, schedule: Q01DX005 (ip), vehicle: saline with Tween-80).
